biological target: human KV7.2/KV7.3 (Homo sapiens (Human), UniProt O43525+O43526); assay: Potassium flux assay (IPG-2 AM dye); format: cell-based; settings: TREX HEK 293 or HEK 293 cells expressing human KV7.2/KV7.3; arithmetic mean values
How it was run: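 EC50 from 16 concentrations (2-fold dilutions, top 30 μM), scaled between DMSO baseline and a known KV7.x modulator maximum. Signal is IPG-2 AM fluorescence (ex 530/em 558 nm) after 10 mM KCl challenge buffer addition, following 20 min room-temperature compound exposure of HEK 293 or TREX HEK 293 cells stably expressing human KV7.2/KV7.3.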

Row | EC50 | SMILES
1 | 1000 to 10000 nM | CS(=O)(=O)N1CCC(Oc2ccc3c(Nc4ccc(Cl)nc4)nccc3c2)CC1 [Example 118, N-(6-chloropyridin-3-yl)-6-((1-(methylsulfonyl)piperidin-4-yl)oxy)isoquinolin-1-amine]
2 | 10000 to 30000 nM | COCCN1CCC(Oc2ccc3c(Nc4ccc(Cl)nc4)nccc3c2)CC1 [Example 119, N-(6-chloropyridin-3-yl)-6-((1-(2-methoxyethyl)piperidin-4-yl)oxy)isoquinolin-1-amine]
3 | 10000 to 30000 nM | Clc1ccc(Nc2nccc3cc(OCCn4cccn4)ccc23)cn1 [Example 120, 6-(2-(1H-pyrazol-1-yl)ethoxy)-N-(6-chloropyridin-3-yl)isoquinolin-1-amine]
4 | 1000 to 10000 nM | O=C(C1CC1)N1CCC(Oc2ccc3c(Nc4ccc(Cl)nc4)nccc3c2)CC1 [Example 121, (4-((1-((6-chloropyridin-3-yl)amino)isoquinolin-6-yl)oxy)piperidin-1-yl)(cyclopropyl)methanone]
5 | 1000 to 10000 nM | CC(=O)N1CCC[C@H](Oc2ccc3c(Nc4ccc(Cl)nc4)nccc3c2)C1 [Example 122, (S)-1-(3-((1-((6-chloropyridin-3-yl)amino)isoquinolin-6-yl)oxy)piperidin-1-yl)ethan-1-one]
6 | < 1000 nM | CC(=O)N1CCC[C@@H](Oc2ccc3c(Nc4ccc(Cl)nc4)nccc3c2)C1 [Example 123, (R)-1-(3-((1-((6-chloropyridin-3-yl)amino)isoquinolin-6-yl)oxy)piperidin-1-yl)ethan-1-one]
7 | < 1000 nM | Cc1ncc(Nc2nccc3cc(OCC4(C#N)CC4)ccc23)cn1 [Example 127, 1-(((1-((2-methylpyrimidin-5-yl)amino)isoquinolin-6-yl)oxy)methyl)cyclopropane-1-carbonitrile]
8 | 10000 to 30000 nM | CN1CC(F)(COc2ccc3c(Nc4ccc(Cl)nc4)nccc3c2)C1 [Example 128, N-(6-chloropyridin-3-yl)-6-((3-fluoro-1-methylazetidin-3-yl)methoxy)isoquinolin-1-amine]
9 | 1000 to 10000 nM | OCc1ncc(Nc2nccc3cc(OCC4(F)CC4)ccc23)cn1 [Example 129, (5-((6-((1-fluorocyclopropyl)methoxy)isoquinolin-1-yl)amino)pyrimidin-2-yl)methanol]
10 | 10000 to 30000 nM | CC[C@@H](OC)c1ccc2c(Nc3ccc(Cl)nc3)nccc2c1 [Example 130, (R)—N-(6-chloropyridin-3-yl)-6-(1-methoxypropyl)isoquinolin-1-amine]
11 | ≥ 30000 nM | CC[C@H](OC)c1ccc2c(Nc3ccc(Cl)nc3)nccc2c1 [Example 131, (S)—N-(6-chloropyridin-3-yl)-6-(1-methoxypropyl)isoquinolin-1-amine]
12 | 10000 to 30000 nM | CO[C@H](C)c1ccc2c(Nc3ccc(Cl)nc3)nccc2c1 [Example 132, (R)-N-(6-chloropyridin-3-yl)-6-(1-methoxyethyl)isoquinolin-1-amine]
13 | 10000 to 30000 nM | CO[C@@H](C)c1ccc2c(Nc3ccc(Cl)nc3)nccc2c1 [Example 133, (S)-N-(6-chloropyridin-3-yl)-6-(1-methoxyethyl)isoquinolin-1-amine]
14 | < 1000 nM | N#CCC1(COc2ccc3c(Nc4ccc(Cl)nc4)nccc3c2)COC1 [Example 134, 2-(3-(((1-((6-chloropyridin-3-yl)amino)isoquinolin-6-yl)oxy)methyl)oxetan-3-yl)acetonitrile]
15 | < 1000 nM | Clc1ccc(Nc2nccc3cc(O[C@H]4CCC5(COC5)C4)ccc23)cn1 [Example 135, (S)-6-((2-oxaspiro[3.4]octan-6-yl)oxy)-N-(6-chloropyridin-3-yl)isoquinolin-1-amine]
16 | 1000 to 10000 nM | C#CC(C)(C)COc1ccc2c(Nc3ccc(Cl)nc3)nccc2c1 [Example 136, N-(6-chloropyridin-3-yl)-6-((2,2-dimethylbut-3-yn-1-yl)oxy)isoquinolin-1-amine]
17 | < 1000 nM | Clc1ccc(Nc2nccc3cc(OCC4(C5CC5)CC4)ccc23)cn1 [Example 137, 6-([1,1′-bi(cyclopropan)]-1-ylmethoxy)-N-(6-chloropyridin-3-yl)isoquinolin-1-amine]
18 | < 1000 nM | Clc1ccc(Nc2nccc3cc(O[C@@H]4CCC5(COC5)C4)ccc23)cn1 [Example 138, (R)-6-((2-oxaspiro[3.4]octan-6-yl)oxy)-N-(6-chloropyridin-3-yl)isoquinolin-1-amine]
19 | 1000 to 10000 nM | C[C@@H](Oc1ccc2c(Nc3ccc(Cl)nc3)nccc2c1)C1(F)CC1 [Example 139, (R)-N-(6-chloropyridin-3-yl)-6-(1-(1-fluorocyclopropyl)ethoxy)isoquinolin-1-amine]
20 | < 1000 nM | C[C@H](Oc1ccc2c(Nc3ccc(Cl)nc3)nccc2c1)C1(F)CC1 [Example 140, (S)-N-(6-chloropyridin-3-yl)-6-(1-(1-fluorocyclopropyl)ethoxy)isoquinolin-1-amine]
21 | 1000 to 10000 nM | FC1(COc2ccc3c(Nc4ccc(Cl)nc4)nccc3c2)CCC1 [Example 141, N-(6-chloropyridin-3-yl)-6-((1-fluorocyclobutyl)methoxy)isoquinolin-1-amine]

Row | EC50 | SMILES
22 | ≥ 30000 nM | CN(c1cnc(Cl)nc1)c1nccc2cc(OCC3(F)CC3)ccc12 [Example 144, N-(2-chloropyrimidin-5-yl)-6-((1-fluorocyclopropyl)methoxy)-N-methylisoquinolin-1-amine]
23 | < 1000 nM | N#CC(F)(COc1ccc2c(Nc3cnc(Cl)nc3)nccc2c1)C1CC1 (centres unmarked) [Example 146, 3-((1-((2-chloropyrimidin-5-yl)amino)isoquinolin-6-yl)oxy)-2-cyclopropyl-2-fluoropropanenitrile]
24 | < 1000 nM | N#CCC1(COc2ccc3c(Nc4cnc(Cl)nc4)nccc3c2)CC1 [Example 147, 2-(1-(((1-((2-chloropyrimidin-5-yl)amino)isoquinolin-6-yl)oxy)methyl)cyclopropyl)acetonitrile]
25 | < 1000 nM | C[C@]1(O)CCC[C@@H](Oc2ccc3c(Nc4ccc(Cl)nc4)nccc3c2)C1 [Example 148, (1S,3R)-3-((1-((6-chloropyridin-3-yl)amino)isoquinolin-6-yl)oxy)-1-methylcyclohexan-1-ol]
26 | < 1000 nM | C[C@@]1(O)CCC[C@H](Oc2ccc3c(Nc4ccc(Cl)nc4)nccc3c2)C1 [Example 149, (1R,3S)-3-((1-((6-chloropyridin-3-yl)amino)isoquinolin-6-yl)oxy)-1-methylcyclohexan-1-ol]
27 | < 1000 nM | Cn1ccc(COc2ccc3c(Nc4ccc(Cl)nc4)nccc3c2)n1 [Example 150, N-(6-chloropyridin-3-yl)-6-((1-methyl-1H-pyrazol-3-yl)methoxy)isoquinolin-1-amine]
28 | < 1000 nM | C#CC1(COc2ccc3c(Nc4ccc(Cl)nc4)nccc3c2)CC1 [Example 151, N-(6-chloropyridin-3-yl)-6-((1-ethynylcyclopropyl)methoxy)isoquinolin-1-amine]
29 | < 1000 nM | CC(C)C1(COc2ccc3c(Nc4ccc(Cl)nc4)nccc3c2)COC1 [Example 152, N-(6-chloropyridin-3-yl)-6-((3-isopropyloxetan-3-yl)methoxy)isoquinolin-1-amine]
30 | < 1000 nM | OC1CC2(C1)CC(Oc1ccc3c(Nc4ccc(Cl)nc4)nccc3c1)C2 (centres unmarked) [Example 153, 6-((1-((6-chloropyridin-3-yl)amino)isoquinolin-6-yl)oxy)spiro[3.3]heptan-2-ol]
31 | < 1000 nM | Clc1ccc(Nc2nccc3cc(OCC4COCCO4)ccc23)cn1 (centres unmarked) [Example 154, 6-((1,4-dioxan-2-yl)methoxy)-N-(6-chloropyridin-3-yl)isoquinolin-1-amine]
32 | 1000 to 10000 nM | OCC(F)(F)COc1ccc2c(Nc3ccc(Cl)nc3)nccc2c1 [Example 155, 3-((1-((6-chloropyridin-3-yl)amino)isoquinolin-6-yl)oxy)-2,2-difluoropropan-1-ol]
33 | < 1000 nM | Cc1oncc1COc1ccc2c(Nc3ccc(Cl)nc3)nccc2c1 [Example 156, N-(6-chloropyridin-3-yl)-6-((5-methylisoxazol-4-yl)methoxy)isoquinolin-1-amine]
34 | < 1000 nM | Clc1ccc(Nc2nccc3cc(OCc4ccno4)ccc23)cn1 [Example 157, N-(6-chloropyridin-3-yl)-6-(isoxazol-5-ylmethoxy)isoquinolin-1-amine]
35 | 1000 to 10000 nM | Clc1ccc(Nc2nccc3cc(OCc4cnc(Cc5cccnc5)o4)ccc23)cn1 [Example 158, N-(6-chloropyridin-3-yl)-6-((2-(pyridin-3-ylmethyl)oxazol-5-yl)methoxy)isoquinolin-1-amine]
36 | 1000 to 10000 nM | C[C@@H](COc1ccc2c(Nc3ccc(Cl)nc3)nccc2c1)c1cnn(C)c1 [Example 159, (R)—N-(6-chloropyridin-3-yl)-6-(2-(1-methyl-1H-pyrazol-4-yl)propoxy)isoquinolin-1-amine]
37 | 1000 to 10000 nM | C[C@H](COc1ccc2c(Nc3ccc(Cl)nc3)nccc2c1)c1cnn(C)c1 [Example 160, (S)—N-(6-chloropyridin-3-yl)-6-(2-(1-methyl-1H-pyrazol-4-yl)propoxy)isoquinolin-1-amine]
38 | 1000 to 10000 nM | CC#CC(C)(C)COc1ccc2c(Nc3ccc(Cl)nc3)nccc2c1 [Example 161, N-(6-chloropyridin-3-yl)-6-((2,2-dimethylpent-3-yn-1-yl)oxy)isoquinolin-1-amine]
39 | < 1000 nM | CNc1cc(Nc2nccc3cc(OCC4(C)COC4)ccc23)cnc1Cl [Example 162, 2-chloro-N^3-methyl-N^5-(6-((3-methyloxetan-3-yl)methoxy)isoquinolin-1-yl)pyridine-3,5-diamine]
40 | < 1000 nM | CC1(COc2ccc3c(Nc4cnc(Cl)c(N)c4)nccc3c2)COC1 [Example 163, 2-chloro-N^5-(6-((3-methyloxetan-3-yl)methoxy)isoquinolin-1-yl)pyridine-3,5-diamine]
41 | < 1000 nM | Cc1nn(C)cc1COc1ccc2c(Nc3ccc(Cl)nc3)nccc2c1 [Example 165, N-(6-chloropyridin-3-yl)-6-((1,3-dimethyl-1H-pyrazol-4-yl)methoxy)isoquinolin-1-amine]

From patent US20240101531A1, “PYRIDINAMINE DERIVATIVES AND THEIR USE AS POTASSIUM CHANNEL MODULATORS” (Xenon Pharmaceuticals Inc., priority 2022, published 2024)
